Measured values taken from patent publication US11440923B2, “Substituted macrocyclic indole derivatives” (Bayer Aktiengesellschaft, priority 2017, dated 2022).
pEC50, pIC50: −log10 of the molar value. Where a name gives a salt, the structure may show the parent alone. Read-outs that look alike come from different tables or passages of the source.

What was measured:
Format in all cases: cell-based
SUDHL5 cells [1] = assay: Induction of caspase-3/7 activity in SUDHL5 cells (Assay 4); conditions: caspase-3/7 induction, 3 h, read-out: Caspase SUDHL5 EC50 (median)
Summary of the method: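 Read-out: Caspase-Glo 3/7 luminescence (1 h, 37 °C) after cells, plated overnight, were treated with compounds for 3 h at 37 °C. Signal corrected for cell-free medium background and expressed relative to DMSO control mean.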

SUDHL5 cells [2] = assay: Induction of cytotoxicity in SUDHL5 cells (Assay 6); conditions: 5 h, CellTiter-Glo, read-out: Cytotox SUDHL5 IC50 (median)
Summary of the method: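 Following overnight seeding at 37 °C, cells are treated with compound for 5 h, after which CellTiter-Glo reagent is added and luminescence measured following a 15 min room-temperature shake.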

AMO-1 cells = assay: Antiproliferation assay AMO-1 (Assay 7); conditions: 72 h, CellTiter-Glo, read-out: Antiproli AMO-1 IC50 median
Summary of the method: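 After overnight attachment at 37 °C, cells received compound for 72 h in a humidified incubator. Viability was read by CellTiter-Glo luminescence. A separate day 0 plate defined starting cell number for IC50 fitting against DMSO controls.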

Compound | pEC50 (SUDHL5 cells [1]; Homo sapiens, SU-DHL-5, 3 h) | pIC50 (SUDHL5 cells [2]; Homo sapiens, SU-DHL-5, 5 h) | pIC50 (AMO-1 cells; Homo sapiens, AMO1, 72 h) | pEC50 (SUDHL5 cells [1]) | pIC50 (SUDHL5 cells [2]) | pIC50 (AMO-1 cells)
CCc1c2c(nn1C)C(C(F)(F)F)OCCCCn1c(C(=O)O)c(CCCOc3cccc4ccccc34)c3ccc(Cl)c-2c31 (racemic) [Example 27, (rac)-4-Chloro-3-ethyl-2-methyl-7-{3-[(naphthalen-1-yl)oxy]propyl}-15-(trifluoromethyl)-2,10,11,12,13,15-hexahydropyrazolo[4′,3′:9,10][1,6]oxazacycloundecino[8,7,6-hi]indole-8-carboxylic Acid] | 5.49 | 5.72 | 4.92 |  |  | 
CCc1c2c(nn1C)C(CCN1CC(F)(F)C1)OCCCCn1c(C(=O)O)c(CCCOc3cccc4cc(F)ccc34)c3ccc(Cl)c-2c31 (single isomer, unassigned; (+)) [Example 78, (+)-4-chloro-15-[2-(3,3-difluoroazetidin-1-yl)ethyl]-3-ethyl-7-{3-[(6-fluoronaphthalen-1-yl)oxy]propyl}-2-methyl-2,10,11,12,13,15-hexahydropyrazolo[4′,3′:9,10][1,6]oxazacycloundecino[8,7,6-hi]indole-8-carboxylic Acid—N-ethylethanamine Salt] |  |  |  | 7.89 | 7.85 | 7.95
CCc1c2c(nn1C)C(CCC(C)(C)O)OCCCCn1c(C(=O)O)c(CCCOc3cccc4cc(F)ccc34)c3ccc(Cl)c-2c31 (single isomer, unassigned; enantiomer 1) [Example 75, (+)-4-chloro-3-ethyl-7-{3-[(6-fluoronaphthalen-1-yl)oxy]propyl}-15-(3-hydroxy-3-methylbutyl)-2-methyl-2,10,11,12,13,15-hexahydropyrazolo[4′,3′:9,10][1,6]oxazacycloundecino[8,7,6-hi]indole-8-carboxylic Acid—N-ethylethanamine Salt (Enantiomer 1)] |  |  |  | 8.01 | 7.92 | 7.86
CCc1c2c(nn1C)C1CCCN1CCCCn1c(C(=O)O)c(CCCOc3cccc4cc(F)ccc34)c3ccc(Cl)c-2c31 (single isomer, unassigned; (+)) [Example 105, (+)-17-chloro-1-ethyl-14-{3-[(6-fluoronaphthalen-1-yl)oxy]propyl}-2-methyl-3b,4,5,6,8,9,10,11-octahydro-2H-pyrazolo[3′,4′:8,9]pyrrolo[1′,2′:6,7][1,6]diazacycloundecino[10,11,1-hi]indole-13-carboxylic Acid] |  |  |  | 6.48 | 6.43 | 6.69
